Assay results: ChEMBL document CHEMBL3885861, “Open TG-GATES”

Organism: Rattus norvegicus
Test: Open TG-GATES - Regimen: Single
Type: toxicity, organism-based, Sprague-Dawley
Parameters: regimen Single, gender Male, age 6 weeks
Details: in vivo, po, 100 mg/kg, route gavage, dose level Low; for APTT / Bas / Eos / Fbg / Hb / Ht / Lym / MCH / MCHC / MCV / Mono / Neu / PT / Plat / RBC / Ret / WBC: tissue Blood; for KIDNEY_L / KIDNEY_R / KIDNEY_TOTAL: tissue Kidney; for LIVER: tissue Liver; for A/G / ALP / ALT / AST / BUN / CRE / Ca / Cl / DBIL / GLC / IP / K / LDH / Na / PL / RALB / TBIL / TC / TG / TP / gamma-GTP: tissue Plasma

SMILES: CCc1cc(C(N)=S)ccn1 [ETHIONAMIDE]
- TERMINAL_BW (3 h): 224.2 g
- APTT (3 h): 16.6 s
- Bas (3 h): 0%
- Eos (3 h): 1%
- Fbg (3 h): 211.2 mg/dL
- Hb (3 h): 13.8 g/dL
- Ht (3 h): 40.6%
- Lym (3 h): 73.6%
- MCH (3 h): 21.8 pg
- MCHC (3 h): 34%
- MCV (3 h): 64 fL
- Mono (3 h): 8.4%
- Neu (3 h): 17.4%
- PT (3 h): 12.4 s
- Plat (3 h): 119.3 x10_4/uL
- RBC (3 h): 635.8 x10_4/ul
- Ret (3 h): 7.1%
- WBC (3 h): 90.5 x10_2/uL
- KIDNEY_L (3 h): 1 g
- KIDNEY_R (3 h): 1 g
- KIDNEY_TOTAL (3 h): 1.9 g
- LIVER (3 h): 10.7 g
- A/G (3 h): 1.9
- ALP (3 h): 802.2 IU/L
- ALT (3 h): 36 IU/L
- AST (3 h): 68.6 IU/L
- BUN (3 h): 15 mg/dL
- CRE (3 h): 0.7 mg/dL
- Ca (3 h): 11 mg/dL
- Cl (3 h): 103 meq/L
- DBIL (3 h): 0.012 mg/dL
- GLC (3 h): 181.6 mg/dL
- IP (3 h): 9.2 mg/dL
- K (3 h): 4.4 meq/L
- LDH (3 h): 109 IU/L
- Na (3 h): 140.6 meq/L
- PL (3 h): 128.4 mg/dL
- RALB (3 h): 3.6 g/dL
- TBIL (3 h): 0.4 mg/dL
- TC (3 h): 73 mg/dL
- TG (3 h): 58 mg/dL
- TP (3 h): 5.5 g/dL
- gamma-GTP (3 h): 1.6 IU/L
- TERMINAL_BW (6 h): 229.4 g
- APTT (6 h): 17.1 s
- Bas (6 h): 0%
- Eos (6 h): 0.8%
- Fbg (6 h): 208.8 mg/dL
- Hb (6 h): 14.2 g/dL
- Ht (6 h): 42.1%
- Lym (6 h): 77.6%
- MCH (6 h): 22.1 pg
- MCHC (6 h): 33.7%
- MCV (6 h): 65.7 fL
- Mono (6 h): 8%
- Neu (6 h): 14.2%
- PT (6 h): 13.4 s
- Plat (6 h): 114.8 x10_4/uL
- RBC (6 h): 640.6 x10_4/ul
- Ret (6 h): 7.5%
- WBC (6 h): 84 x10_2/uL
- KIDNEY_L (6 h): 1 g
- KIDNEY_R (6 h): 1 g
- KIDNEY_TOTAL (6 h): 2 g
- LIVER (6 h): 10.8 g
- A/G (6 h): 1.8
- ALP (6 h): 908.4 IU/L
- ALT (6 h): 31.6 IU/L
- AST (6 h): 77.4 IU/L
- BUN (6 h): 15.6 mg/dL
- CRE (6 h): 0.5 mg/dL
- Ca (6 h): 11 mg/dL
- Cl (6 h): 105.4 meq/L
- DBIL (6 h): 0.004 mg/dL
- GLC (6 h): 187.4 mg/dL
- IP (6 h): 9.8 mg/dL
- K (6 h): 4.5 meq/L
- LDH (6 h): 123.4 IU/L
- Na (6 h): 140.4 meq/L
- PL (6 h): 126 mg/dL
- RALB (6 h): 3.5 g/dL
- TBIL (6 h): 0.4 mg/dL
- TC (6 h): 69.6 mg/dL
- TG (6 h): 54.4 mg/dL
- TP (6 h): 5.5 g/dL
- gamma-GTP (6 h): 1 IU/L
- TERMINAL_BW (9 h): 222.6 g
- APTT (9 h): 18.1 s
- Bas (9 h): 0%
- Eos (9 h): 1.4%
- Fbg (9 h): 210.2 mg/dL
- Hb (9 h): 14.2 g/dL
- Ht (9 h): 42.2%
- Lym (9 h): 70%
- MCH (9 h): 21.7 pg
- MCHC (9 h): 33.7%
- MCV (9 h): 64.4 fL
- Mono (9 h): 8.6%
- Neu (9 h): 20%
- PT (9 h): 14.1 s
- Plat (9 h): 116.8 x10_4/uL
- RBC (9 h): 655.2 x10_4/ul
- Ret (9 h): 8.3%
- WBC (9 h): 79.2 x10_2/uL
- KIDNEY_L (9 h): 1 g
- KIDNEY_R (9 h): 1 g
- KIDNEY_TOTAL (9 h): 2 g
- LIVER (9 h): 9.8 g
- A/G (9 h): 2
- ALP (9 h): 756.6 IU/L
- ALT (9 h): 33.8 IU/L
- AST (9 h): 73.4 IU/L
- BUN (9 h): 15 mg/dL
- CRE (9 h): 0.6 mg/dL
- Ca (9 h): 10.7 mg/dL
- Cl (9 h): 105.2 meq/L
- DBIL (9 h): 0.018 mg/dL
- GLC (9 h): 205.4 mg/dL
- IP (9 h): 10.7 mg/dL
- K (9 h): 4.5 meq/L
- LDH (9 h): 95.6 IU/L
- Na (9 h): 142 meq/L
- PL (9 h): 100.4 mg/dL
- RALB (9 h): 3.5 g/dL
- TBIL (9 h): 0.4 mg/dL
- TC (9 h): 53.4 mg/dL
- TG (9 h): 28.4 mg/dL
- TP (9 h): 5.3 g/dL
- gamma-GTP (9 h): 1.4 IU/L
- TERMINAL_BW (24 h): 231 g
- APTT (24 h): 16.3 s
- Bas (24 h): 0%
- Eos (24 h): 1.2%
- Fbg (24 h): 214.8 mg/dL
- Hb (24 h): 14.3 g/dL
- Ht (24 h): 42.3%
- Lym (24 h): 62.4%
- MCH (24 h): 21.6 pg
- MCHC (24 h): 33.8%
- MCV (24 h): 63.8 fL
- Mono (24 h): 12.8%
- Neu (24 h): 23.8%
- PT (24 h): 12.2 s
- Plat (24 h): 117.2 x10_4/uL
- RBC (24 h): 663 x10_4/ul
- Ret (24 h): 8%
- WBC (24 h): 110 x10_2/uL
- KIDNEY_L (24 h): 1.1 g
- KIDNEY_R (24 h): 1.1 g
- KIDNEY_TOTAL (24 h): 2.1 g
- LIVER (24 h): 11.7 g
- A/G (24 h): 1.9
- ALP (24 h): 884.8 IU/L
- ALT (24 h): 38.6 IU/L
- AST (24 h): 80.4 IU/L
- BUN (24 h): 16.4 mg/dL
- CRE (24 h): 0.6 mg/dL
- Ca (24 h): 10.9 mg/dL
- Cl (24 h): 104.6 meq/L
- DBIL (24 h): 0.026 mg/dL
- GLC (24 h): 193.2 mg/dL
- IP (24 h): 7.8 mg/dL
- K (24 h): 4.6 meq/L
- LDH (24 h): 90.4 IU/L
- Na (24 h): 141.4 meq/L
- PL (24 h): 136 mg/dL
- RALB (24 h): 3.6 g/dL
- TBIL (24 h): 0.3 mg/dL
- TC (24 h): 67.6 mg/dL
- TG (24 h): 103.8 mg/dL
- TP (24 h): 5.5 g/dL
- gamma-GTP (24 h): 1.8 IU/L
